Test results taken from patent US12479822B2, “AHR agonists” (Eli Lilly and Company, priority 2021, dated 2025).

Biological target: T1, Human AHR (Homo sapiens, UniProt P35869)
T1 construct: expressed in transfected cells
T1 sequence (P35869 11-848): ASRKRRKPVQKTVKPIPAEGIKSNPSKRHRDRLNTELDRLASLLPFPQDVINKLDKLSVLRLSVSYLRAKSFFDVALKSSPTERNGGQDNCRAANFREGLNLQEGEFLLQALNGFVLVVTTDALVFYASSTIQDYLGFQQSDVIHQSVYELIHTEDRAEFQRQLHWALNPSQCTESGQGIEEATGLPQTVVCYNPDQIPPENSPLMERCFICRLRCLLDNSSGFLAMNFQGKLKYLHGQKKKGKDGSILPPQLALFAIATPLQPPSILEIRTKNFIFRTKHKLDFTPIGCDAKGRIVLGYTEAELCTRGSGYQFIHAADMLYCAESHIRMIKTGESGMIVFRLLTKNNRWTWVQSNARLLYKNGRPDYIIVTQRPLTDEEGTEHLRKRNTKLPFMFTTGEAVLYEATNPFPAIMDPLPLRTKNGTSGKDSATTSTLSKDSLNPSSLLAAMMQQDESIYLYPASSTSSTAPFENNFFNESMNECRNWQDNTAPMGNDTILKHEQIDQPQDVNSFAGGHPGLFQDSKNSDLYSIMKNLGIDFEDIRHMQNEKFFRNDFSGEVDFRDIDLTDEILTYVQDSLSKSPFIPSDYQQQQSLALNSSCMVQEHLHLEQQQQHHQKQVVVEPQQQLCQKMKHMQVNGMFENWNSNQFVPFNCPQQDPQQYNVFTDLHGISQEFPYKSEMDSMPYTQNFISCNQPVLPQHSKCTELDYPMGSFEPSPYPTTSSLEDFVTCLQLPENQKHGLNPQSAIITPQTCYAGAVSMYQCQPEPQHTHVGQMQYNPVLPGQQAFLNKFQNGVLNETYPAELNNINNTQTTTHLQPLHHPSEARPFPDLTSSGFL
Assay: hAHR Nuclear Translocation Assay
Type: cell-based
Details: Jump-In T-REx HEK293 cells expressing AhR-EGFP chimera; 45 minutes incubation; ratio of EGFP fluorescent intensity in nuclear over cytosol; 20-point curve
Protocol: Stable cell lines were established using Jump-In™ T-REx™ HEK293 Retargeting Kit (Life Technologies). Human AHR cDNA was cloned into the pJTI R4 CMV-TO EGFP vector. The EGFP was cloned to the C-terminal of AHR to form AhR-EGFP chimera. The pJTI R4 CMV-TO AhR-EGFP vector was transfected using FuGENE® HD into Jump-In™ T-REx™ HEK293 cells. Transfected cells were selected using 2.5 mg/ml G418 for 10 to 14 days, then expanded, harvested, and suspended in freeze media (FBS with 8% DMSO) at 2×10^7 cells/ml, and aliquots were stored in liquid nitrogen. […] On the assay date, compound was serially diluted (1:2) into 384-well nunc plates with DMSO using acoustic dispensing (ECHO). The dose response was a 20-point curve. Compound was resuspended in 40 μl of DMEM plus 0.1% BSA. The culture media was damped and 25 μl of DMEM plus 0.1% BSA was added, then 25 μl of compound in DMEM plus 0.1% BSA was added into cell plates. Cells were incubated with compounds at 37° C. and 5% CO2 for 45 minutes. The final DMSO concentration was 0.2%. The media was damped after 45 minutes of incubation. The cells were fixed with 40 μl of cold methanol (−20° C.) for 20 minutes. The methanol was damped and 50 μl of DPBS containing 1 μg/ml Hochst was added into the cell plates. The intensity of EGFP was quantitated by using OPERA PHENIX® or Operetta™ high content image system (Perkin Elmer) with 20× Water Objective and five field per well. The ratio of EGFP fluorescent intensity in nuclear over cytosol was analyzed using a 4-parameter nonlinear logistic equation to determine the potency of AHR agonists.

Row | EC50 | SMILES
1 | 0.57 nM | Cc1ccc(NC(=O)c2cc3cccc4c3n(c2=O)CC4)cc1 [Example 29, 11-Oxo-N-(p-tolyl)-1-azatricyclo[6.3.1.04,12]dodeca-4(12),5,7,9-tetraene-10-carboxamide]
2 | 1.33 nM | O=C(Nc1ccc(C(F)(F)F)cc1)c1cc2cccc3c2n(c1=O)CC3 [Example 33, 11-Oxo-N-[4-(trifluoromethyl)phenyl]-1-azatricyclo[6.3.1.04,12]dodeca-4(12),5,7,9-tetraene-10-carboxamide]
3 | 16.2 nM | CN(C)CCNc1cccc2c1cc(C(=O)Nc1ccccn1)c(=O)n2C [Example 53, 5-[2-(Dimethylamino)ethylamino]-1-methyl-2-oxo-N-(2-pyridyl)quinoline-3-carboxamide]
4 | 0.304 nM | COc1ccc(NC(=O)c2cc3ccccc3n(C)c2=O)cc1 [Example 1, N-(4-Methoxyphenyl)-1-methyl-2-oxo-quinoline-3-carboxamide]
5 | 0.511 nM | O=C(Nc1ccc(F)cc1)c1cc2cccc3c2n(c1=O)CC3 [Example 30, N-(4-Fluorophenyl)-11-oxo-1-azatricyclo[6.3.1.04,12]dodeca-4(12),5,7,9-tetraene-10-carboxamide]
6 | 6.69 nM | Cn1c(=O)c(C(=O)Nc2ccccn2)cc2c(NCCO)cccc21 [Example 65, 5-(2-Hydroxyethylamino)-1-methyl-2-oxo-N-(2-pyridyl)quinoline-3-carboxamide]
7 | 2.29 nM | COc1ccc(NC(=O)c2cc3cccnc3n(C)c2=O)cc1 [Example 35, N-(4-Methoxyphenyl)-1-methyl-2-oxo-1,8-naphthyridine-3-carboxamide]
8 | 15.1 nM | Cn1c(=O)c(C(=O)Nc2ccccc2)cc2ccc(NCCO)cc21 [Example 70, 7-(2-Hydroxyethylamino)-1-methyl-2-oxo-N-phenyl-quinoline-3-carboxamide]
9 | 20.3 nM | CN(C)CCNc1ccc2c(c1)cc(C(=O)Nc1ccc(F)cn1)c(=O)n2C [Example 52, 6-[2-(Dimethylamino)ethylamino]-N-(5-fluoro-2-pyridyl)-1-methyl-2-oxo-quinoline-3-carboxamide]
10 | 0.832 nM | COc1ccc(NC(=O)c2cc3ccc(Br)cc3n(C)c2=O)cc1 [Example 36, 7-Bromo-N-(4-methoxyphenyl)-1-methyl-2-oxo-quinoline-3-carboxamide]
11 | 16.1 nM | Cn1c(=O)c(C(=O)Nc2ccccc2)cc2ccc(OCCO)cc21 [Example 61, 7-(2-Hydroxyethoxy)-1-methyl-2-oxo-N-phenyl-quinoline-3-carboxamide]
12 | 0.389 nM | Cn1c(=O)c(C(=O)Nc2ccc(F)cn2)cc2ccccc21 [Example 22, N-(5-Fluoro-2-pyridyl)-1-methyl-2-oxo-quinoline-3-carboxamide]
13 | 3.52 nM | Cn1c(=O)c(C(=O)Nc2ncccn2)cc2ccccc21 [Example 39, 1-Methyl-2-oxo-N-pyrimidin-2-yl-quinoline-3-carboxamide]
14 | 1.09 nM | COc1cnc(NC(=O)c2cc3ccccc3n(C)c2=O)cn1 [Example 16, N-(5-Methoxypyrazin-2-yl)-1-methyl-2-oxo-quinoline-3-carboxamide]
15 | 9 nM | CN(C)CCNc1ccc2c(c1)cc(C(=O)Nc1ccccc1)c(=O)n2C [Example 49, 6-[2-(Dimethylamino)ethylamino]-1-methyl-2-oxo-N-phenyl-quinoline-3-carboxamide]
16 | 1.91 nM | Cn1c(=O)c(C(=O)Nc2ncccc2F)cc2ccccc21 [Example 28, N-(3-Fluoro-2-pyridyl)-1-methyl-2-oxo-quinoline-3-carboxamide]
17 | 40.6 nM | CN(C)CCNc1ccc2c(c1)cc(C(=O)Nc1ccccn1)c(=O)n2C [Example 55, 6-[2-(Dimethylamino)ethylamino]-1-methyl-2-oxo-N-(2-pyridyl)quinoline-3-carboxamide]

Row | EC50 | SMILES
18 | 2.57 nM | COc1ccc(NC(=O)c2cc3cccc4c3n(c2=O)CCC4)cc1 [Example 25, N-(4-Methoxyphenyl)-2-oxo-1-azatricyclo[7.3.1.05,13]trideca-3,5,7,9(13)-tetraene-3-carboxamide]
19 | 16.4 nM | CN(C)CCNc1cccc2c1cc(C(=O)Nc1ccc(F)cn1)c(=O)n2C [Example 51, 5-[2-(Dimethylamino)ethylamino]-N-(5-fluoro-2-pyridyl)-1-methyl-2-oxo-quinoline-3-carboxamide]
20 | 53.9 nM | Cn1c(=O)c(C(=O)Nc2ccc(F)cn2)cc2cc(NCCO)ccc21 [Example 66, N-(5-Fluoro-2-pyridyl)-6-(2-hydroxyethylamino)-1-methyl-2-oxo-quinoline-3-carboxamide]
21 | 1.92 nM | Cn1c(=O)c(C(=O)Nc2ccc(F)cn2)cc2c(NCCO)cccc21 [Example 67, N-(5-Fluoro-2-pyridyl)-5-(2-hydroxyethylamino)-1-methyl-2-oxo-quinoline-3-carboxamide]
22 | 2.41 nM | Cn1c(=O)c(C(=O)Nc2ccccc2O)cc2ccccc21 [Example 2, N-(2-Hydroxyphenyl)-1-methyl-2-oxo-quinoline-3-carboxamide]
23 | 6.24 nM | Cc1ccc(NC(=O)c2cc3cccc4c3n(c2=O)CC4)nc1 [Example 41, N-(5-Methyl-2-pyridyl)-11-oxo-1-azatricyclo[6.3.1.04, 12]dodeca-4(12),5,7,9-tetraene-10-carboxamide]
24 | 26.8 nM | CN(C)CCNc1cccc2cc(C(=O)Nc3ccccc3)c(=O)n(C)c12 [Example 50, 8-[2-(Dimethylamino)ethylamino]-1-methyl-2-oxo-N-phenyl-quinoline-3-carboxamide]
25 | 0.468 nM | Cn1c(=O)c(C(=O)Nc2ccc(F)cc2)cc2cccnc21 [Example 18, N-(4-Fluorophenyl)-1-methyl-2-oxo-1,8-naphthyridine-3-carboxamide]
26 | 1.12 nM | COc1cccc(NC(=O)c2cc3ccccc3n(C)c2=O)c1 [Example 8, N-(3-Methoxyphenyl)-1-methyl-2-oxo-quinoline-3-carboxamide]
27 | 62.8 nM | CN(C)CCNc1cccc2c1cc(C(=O)Nc1ncc(F)cn1)c(=O)n2C [Example 57, 5-[2-(Dimethylamino)ethylamino]-N-(5-fluoropyrimidin-2-yl)-1-methyl-2-oxo-quinoline-3-carboxamide]
28 | 14.2 nM | COc1cnc(NC(=O)c2cc3ccccc3n(C)c2=O)nc1 [Example 15, N-(5-Methoxypyrimidin-2-yl)-1-methyl-2-oxo-quinoline-3-carboxamide]
29 | 6.13 nM | Cc1ccnc(NC(=O)c2cc3ccccc3n(C)c2=O)c1 [Example 7, 1-Methyl-N-(4-methyl-2-pyridyl)-2-oxo-quinoline-3-carboxamide]
30 | 0.0971 nM | Cc1ccc(NC(=O)c2cc3ccccc3n(C)c2=O)cc1 [Example 5, 1-Methyl-2-oxo-N-(p-tolyl) quinoline-3-carboxamide]
31 | 2.14 nM | COc1ccc(NC(=O)c2cc3ccc(C4CC4)cc3n(C)c2=O)cc1 [Example 45, 7-Cyclopropyl-N-(4-methoxyphenyl)-1-methyl-2-oxo-quinoline-3-carboxamide]
32 | 0.807 nM | O=C(Nc1ccc(F)cn1)c1cc2cccc3c2n(c1=O)CC3 [Example 37, N-(5-Fluoro-2-pyridyl)-11-oxo-1-azatricyclo[6.3.1.04,12]dodeca-4(12),5,7,9-tetraene-10-carboxamide]
33 | 3.96 nM | O=C(Nc1ccccn1)c1cc2cccc3c2n(c1=O)CC3 [Example 42, 11-Oxo-N-(2-pyridyl)-1-azatricyclo[6.3.1.04,12]dodeca-4(12),5,7,9-tetraene-10-carboxamide]
